# Source: US20180118588A1, “CONTROL OF BACTERIAL ACTIVITY, SUCH AS IN SEWERS AND WASTEWATER TREATMENT SYSTEMS” (THE UNIVERSITY OF QUEENSLAND, priority 2010, published 2018)
# Read-outs that look alike come from different tables or passages of the source.
# Assays:
# [1] = test system: methanogenic archaea (MA) in sewer biofilm; details: Exp. III
# From the text: (§1) Experiment III aimed to achieve complete inhibition on both sulfide and methane production.
# sewer biofilm cells = details: Exp. III; FNA dosed in the reactors
# From the text: as §1
# [2] = test system: sulfate reducing bacteria (SRB) in sewer biofilm; details: Exp. III
# From the text: as §1
# anaerobic sewer biofilms = assay: Viability tests with biofilms on carriers from rising main sewer reactors (cell killing capacity, Table 2, FIG. 7-9); type: cell-based; details: for Inactivation of biofilm cells: agent by itself
# Experimental: In these experiments, viability tests were carried out with biofilms on carriers from rising main sewer reactors. […]
# [3] = test system: sulfate reducing bacteria (SRB) in sewer biofilm; details: Exp. II
# [4] = test system: methanogenic archaea (MA) in sewer biofilm; details: Exp. II
# [5] = test system: sulfate reducing bacteria (SRB) in sewer biofilm; details: Exp. IV
# [6] = test system: methanogenic archaea (MA) in sewer biofilm; details: Exp. IV
# [7] = test system: sulfate reducing bacteria (SRB) in sewer biofilm; details: Exp. I
# [8] = test system: methanogenic archaea (MA) in sewer biofilm; details: Exp. I
# [9] = FNA 0.18 and 0.36 mg-N/L, 24 hours, 4 dosages
# [10] = one month after stopping FNA dosage
# [11] = FNA 0.05, 0.08, 0.17 mg-N/L, single dose, 6 hour, pH 6.2
# [12] = in the presence of nitrite, continuous dosing 24 days
# [13] = nitrite 20 mg-N/L every 30 minutes for 24 days, pH 8.6~9.2 after dosing
compound,measurement,setting,value
"O=NO [FNA, free nitrous acid]",Inhibition: methane production,[1]; [9],Negligible sulfide
same,Recovery MA,[1]; in two months,MA: 40~60%
same,Methanogens activity recovery,[1]; [10],20%
same,Cells in the biofilm killed (FIG. 4B),sewer biofilm cells,over 90%
same,Inhibition: sulfide production,[2]; [9],Negligible sulfide
same,Recovery SRB,[2]; in two months,SRB: 70-80% in
same,SRB recovery,[2]; [10],about 70%
same,Inactivation of biofilm cells,anaerobic sewer biofilms,significantly inactivating biofilm cells
same,"Microbial killing, ranking (FIG. 7)","anaerobic sewer biofilms; nitrite 100 mgN/L, pH 6, FNA 0.26 mgN/L, 6 hr, H2O2 30 mg/L, O2 6 mg/L, caustic pH 10.5 for 2 hr after FNA","followed by FNA→Caustic, FNA+O2, and FNA"
same,Inhibition: sulfide production,[3]; [11],Negligible sulfide
same,Time to recover to 50% (SRB),"[3]; R4, highest FNA (0.17 mg-N/L), 6 hour contact",16 days
same,Recovery SRB,[3]; after 1 month,SRB: 90%;
same,Inhibition: methane production,[4]; [11],Negligible sulfide
same,Recovery MA,[4]; after 1 month,MA: 30~50%.
same,Methane after the FNA dosing,"[4]; all FNA concentrations, 6 hour contact",below 20%
same,Sulfide production,[5]; Day 14,zero production
same,"Sulfide production, of the initial level",[5]; after 7 days,50%
same,Recovery SRB,[5]; in three weeks,SRB: 100% in
same,Methane production by sewer biofilm,"[6]; one month after terminating dosage, 828 m downstream vs wet well",ceased to produce methane
same,Inhibition: methane production,"[6]; real sewer, nitrite 100 mgN/L, pH 6.0, FNA 0.24 mgN/L, 33 hours over three days",Negligible sulfide
"OO [H2O2, hydrogen peroxide, reference compound]",Effect on biocidal effect of acidified nitrite,"anaerobic sewer biofilms; H2O2 30 mg/L with nitrite 100 mgN/L at pH 6, 6 hr",enhanced the biocidal effect of acidified nitrite
"[Na+].[OH-] [caustic shock, caustic soda, reference compound]",Inactivation of biofilm cells,anaerobic sewer biofilms,significantly inactivating biofilm cells
O=NO [nitrite],Sulfide accumulation in the reactor,[7]; [12],No sulfide and methane accumulation
same,Residual activity after treatment: SRB,[7]; [13],SRB: 1 mg-S/L- mg-S/L-hr
same,Methane accumulation in the reactor,[8]; [12],No sulfide and methane accumulation
same,Residual activity after treatment: MA,[8]; [13],MA: 0.1 mg- mg-COD/L-hr
